Results reported in PMC6514012, “Targeting the neuronal calcium sensor DREAM with small-molecules for Huntington’s disease treatment” (Scientific Reports, 2019).
Substitutions are numbered along the chain they refer to.

B1: Recombinant His-tagged soluble DREAM protein (aa 71–256) (domain or fragment, UniProt Q9Y2W7 71-256, looked up)
chain: TVRHQPEGLDQLQAQTKFTKKELQSLYRGFKNECPTGLVDEDTFKLIYAQFFPQGDATTYAHFLFNAFDADGNGAIHFEDFVVGLSILLRGTVHEKLKWAFNLYDINKDGYITKEEMLAIMKSIYDMMGRHTYPILREDAPAEHVERFFEKMDRNQDGVVTIEEFLEACQKDENIMSSMQLFENVI
notes: DREAM (downstream regulatory element antagonist modulator; KChIP3, calsenilin), residues 71-256; Seen as dimer and monomer on blue native gels with 5 mM CaCl2; also called rDREAM; recombinant DREAM (amino acids 71–256); source: recombinant protein

Tests used:
GST-DREAM [1] = molecular target: T1, GST-DREAM (Homo sapiens, UniProt Q9Y2W7, Y118A); test: SPR, immobilized protein; assay type: binding; settings: CM5 chip; compared with wild type
T1 construct: gene KCNIP3
T1 sequence (Q9Y2W7 1-256 Y118A): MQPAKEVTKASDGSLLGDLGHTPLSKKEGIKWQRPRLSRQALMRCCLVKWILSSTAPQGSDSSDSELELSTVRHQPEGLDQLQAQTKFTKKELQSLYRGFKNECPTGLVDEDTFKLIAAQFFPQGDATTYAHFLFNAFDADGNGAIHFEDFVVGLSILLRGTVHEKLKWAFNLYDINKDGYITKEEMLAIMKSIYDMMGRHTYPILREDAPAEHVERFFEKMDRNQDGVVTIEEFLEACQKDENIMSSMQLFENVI

[2] = molecular target: T2, His-DREAM (71–256); rDREAM (Homo sapiens, UniProt Q9Y2W7); test: SPR, immobilized protein; settings: CM4 chip; binding depends on Ca2+ and Mg2+
T2 construct: gene KCNIP3; residues 71-256, His-tagged, recombinant, immobilized on CM4 sensor chip; dimer and monomer in Ca2+
T2 sequence (Q9Y2W7 71-256): B1 chain

GST-DREAM [3] = molecular target: T3, GST-DREAM (Homo sapiens, UniProt Q9Y2W7, Y130A); test: SPR, immobilized protein; assay type: binding; settings: CM5 chip; compared with wild type
T3 construct: gene KCNIP3
T3 sequence (Q9Y2W7 1-256 Y130A): T1 sequence (Q9Y2W7 1-256 Y118A) with A118Y, Y130A

[4] = molecular target: the molecule itself; test: native gel or EMSA; 10% blue native (nondenaturing, nonreducing) polyacrylamide gel; His-DREAM 71-256 (50 ng, 100 nM) with 5 mM CaCl2, incubated 10 min at RT with 10, 30, 100 and 300 nM IQM-PC330; immunodetection with anti-DREAM antibody; dimer and monomer bands

Molecule | SPR, immobilized protein (GST-DREAM [1]) | KD [2] | SPR, immobilized protein (GST-DREAM [3]) | stoichiometry N [4]
CCCCc1ccc(-c2ccc(C(=O)O)c(NC(=O)Cc3ccc(Cl)c(Cl)c3)c2)cc1 [compound 19, 2-[2-(3,4-Dichlorophenyl)acetylamino]-4-(4′-n-butylphenyl)benzoic acid] | Tyr118Ala or Tyr130Ala showed a substantial decrease in the binding of the two ligands | 2.8 ± 0.3 · 10^−5 M | Tyr118Ala or Tyr130Ala showed a substantial decrease in the binding of the two ligands | –
CCCCc1ccc(-c2ccc(NC(=O)Cc3ccc(Cl)c(Cl)c3)c(C(=O)O)c2)cc1 [compound 36, 2-[2-(3,4-Dichlorophenyl)acetylamino]-5-(4’-n-butylphenyl)benzoic acid] | Tyr118Ala or Tyr130Ala showed a substantial decrease in the binding of the two ligands | 3.9 ± 0.4 · 10^−5 M | Tyr118Ala or Tyr130Ala showed a substantial decrease in the binding of the two ligands | –
B1 | – | – | – | 2
